The values below come from PubChem BioAssay (NCI).

Among the test systems are NCI-H226 lung; HL-60(TB) leukemia; MOLT-4 leukemia; UACC-257 melanoma; HOP-92 NSCLC; SK-MEL-2 melanoma; UACC-62 melanoma; 786-0 renal; HOP-62 NSCLC; SK-MEL-5 melanoma.
Holding throughout (experiment): inhibition of tumour cell growth, NCI panel, 48 h

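Compound exposure: 48 hours, 5 concentrations, 96-well plates. GI50: concentration for 50% inhibition of growth. TGI: total growth inhibition.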

Turning to `N#Cc1c(-c2nc3ccccc3s2)c(=O)oc2cc(O)ccc12`, the TGI in the assay with NCI-H226 lung was above 100 µM; in the assay with HL-60(TB) leukemia it was 66.5 µM; with MOLT-4 leukemia it was above 100 µM; in the assay on UACC-257 melanoma it was above 100 µM; in the assay on HOP-92 NSCLC, 46.3 µM; in the assay with SK-MEL-2 melanoma, above 100 µM. The TGI with UACC-62 melanoma is above 100 µM; with 786-0 renal, above 100 µM; in the assay on HOP-62 NSCLC, 57.3 µM; in the assay on SK-MEL-5 melanoma, 69.8 µM.

With `CC1=C(C(=O)Nc2ccccc2C)C(c2ccccc2)C(C(=O)Nc2ccccc2C)=C(C)N1`, the TGI was above 100 µM in the assay on NCI-H226 lung; 43.3 µM in the assay with HL-60(TB) leukemia; 53 µM in the assay on MOLT-4 leukemia; above 100 µM with UACC-257 melanoma; 41.2 µM in the assay with HOP-92 NSCLC; 93 µM in the assay with SK-MEL-2 melanoma. For the same compound, the TGI was above 100 µM with UACC-62 melanoma, above 100 µM in the assay on 786-0 renal, above 100 µM in the assay with HOP-62 NSCLC and 90 µM in the assay with SK-MEL-5 melanoma.

For `O=[N+]([O-])C1C(c2ccccc2)C12c1ccccc1-c1ccccc12` (stereo not given), the GI50 is 2050 nM in the assay with NCI-H226 lung; 2120 nM with HL-60(TB) leukemia; 746 nM in the assay on MOLT-4 leukemia; 6.38 µM in the assay with UACC-257 melanoma; 0.25 µM in the assay with HOP-92 NSCLC; 4.4 µM with SK-MEL-2 melanoma. Further, the GI50 is 0.544 µM in the assay with UACC-62 melanoma, 590 nM in the assay on 786-0 renal, 573 nM with HOP-62 NSCLC and 515 nM in the assay with SK-MEL-5 melanoma. The TGI is 14.5 µM with NCI-H226 lung; above 100 µM in the assay on HL-60(TB) leukemia; above 26.3 µM with MOLT-4 leukemia; 51.2 µM with UACC-257 melanoma; 2.05 µM with HOP-92 NSCLC; 31.4 µM with SK-MEL-2 melanoma. Further, the TGI in the assay on UACC-62 melanoma was 15.6 µM; in the assay with 786-0 renal, 14.2 µM; in the assay on HOP-62 NSCLC, 17.6 µM; in the assay with SK-MEL-5 melanoma it was 9.48 µM.

For `COc1ccc(N=C2CSc3nnc(-c4cc(F)c(Cl)cc4Cl)n3N2)cc1`, the GI50 is 3840 nM in the assay on NCI-H226 lung; 331 nM in the assay on HL-60(TB) leukemia; 486 nM with MOLT-4 leukemia; 1.38 µM with UACC-257 melanoma; 2.83 µM in the assay on HOP-92 NSCLC; 2.75 µM with SK-MEL-2 melanoma. Further, the GI50 in the assay with UACC-62 melanoma was 0.576 µM; in the assay on 786-0 renal, 1040 nM; with HOP-62 NSCLC, 458 nM; in the assay on SK-MEL-5 melanoma, 1280 nM. Besides, the TGI in the assay with NCI-H226 lung amounted to 38.2 µM; with HL-60(TB) leukemia, 0.636 µM; in the assay on MOLT-4 leukemia, 14.9 µM; with UACC-257 melanoma, 4.16 µM; with HOP-92 NSCLC, 19.1 µM; in the assay on SK-MEL-2 melanoma, 13.4 µM. Moreover, the TGI with UACC-62 melanoma turned out to be 23.2 µM; with 786-0 renal, 4 µM; in the assay with HOP-62 NSCLC it was 2.77 µM; in the assay on SK-MEL-5 melanoma, 11.1 µM.

On to `COc1cc(C2CC(c3ccc(C)cc3)=NN2C=O)ccc1Oc1ccnc2cc(Cl)ccc12` (stereo not given), for which the GI50 is 1810 nM with NCI-H226 lung; above 50000 nM in the assay with HL-60(TB) leukemia; above 50000 nM in the assay with MOLT-4 leukemia; above 50 µM in the assay with UACC-257 melanoma; 9.1 µM in the assay on HOP-92 NSCLC; 7.39 µM in the assay on SK-MEL-2 melanoma. Further, the GI50 was 11.2 µM with UACC-62 melanoma, 5070 nM in the assay on 786-0 renal, 1680 nM with HOP-62 NSCLC and above 50000 nM in the assay on SK-MEL-5 melanoma. Further, the TGI with NCI-H226 lung is above 50 µM; in the assay with HL-60(TB) leukemia, above 50 µM; with MOLT-4 leukemia it was above 50 µM; in the assay with UACC-257 melanoma, above 50 µM; in the assay on HOP-92 NSCLC it was above 50 µM; in the assay with SK-MEL-2 melanoma it was 18.3 µM. For the same compound, the TGI was above 50 µM with UACC-62 melanoma, 19.6 µM in the assay with 786-0 renal, 8.95 µM in the assay on HOP-62 NSCLC and above 50 µM in the assay with SK-MEL-5 melanoma.

Regarding `Cc1cc(-c2ncc(CC(=O)Nc3ccc(-c4cnccn4)cn3)cc2C)ccn1`, the GI50 was 13700 nM in the assay on NCI-H226 lung; 39300 nM with HL-60(TB) leukemia; 23900 nM in the assay on MOLT-4 leukemia; 16.6 µM in the assay with UACC-257 melanoma; 12 µM in the assay with HOP-92 NSCLC; 27.8 µM with SK-MEL-2 melanoma. For the same compound, the GI50 was 22.1 µM in the assay with UACC-62 melanoma, above 100000 nM in the assay on 786-0 renal, 33500 nM in the assay with HOP-62 NSCLC and 6690 nM with SK-MEL-5 melanoma. Besides, the TGI is above 100 µM in the assay on NCI-H226 lung; above 100 µM in the assay with HL-60(TB) leukemia; above 100 µM in the assay with MOLT-4 leukemia; above 100 µM in the assay on UACC-257 melanoma; 81.8 µM in the assay on HOP-92 NSCLC; above 100 µM in the assay on SK-MEL-2 melanoma. The TGI in the assay on UACC-62 melanoma is above 100 µM; in the assay on 786-0 renal, above 100 µM; in the assay on HOP-62 NSCLC, above 100 µM; in the assay on SK-MEL-5 melanoma, 29.6 µM.
